This assay deals with 521955-158-R2-J5-PDC complex spheroid growth. Briefly: Anticancer human tumor 521955-158-R2-J5-PDC patient-derived pancreatic carcinoma cell line growth inhibition [AhR]. As to conditions: for viability, T/C: stronger effect = lower value. The essentials:
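Agents were dosed in half-log steps down from roughly clinical Cmax, or from 10 microM where Cmax was unknown, alone and with AhR antagonists. Read-out: percent test/control growth of tumor spheroids containing HUVEC and MSC stromal cells.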

Where [1] appears, read: curve of first compound, second compound 0.1 µM.
The mark [2] stands for this setting: curve of first compound, second compound 0.316 µM.
[3] abbreviates: curve of first compound, second compound 1 µM.
Where [4] appears, read: curve of first compound, second compound 3.16 µM.
Setting [5] is: curve of first compound, second compound 10 µM.
Where [6] appears, read: second compound 0.1 µM, first compound 0.00949 µM.
Where [7] appears, read: second compound 0.1 µM, first compound 0.03 µM.
Setting [8] is: second compound 0.1 µM, first compound 0.0949 µM.
Where [9] appears, read: second compound 0.1 µM, first compound 0.3 µM.
The mark [10] stands for this setting: second compound 0.1 µM, first compound 0.949 µM.
Setting [11] is: second compound 0.1 µM, first compound 3 µM.
Where [12] appears, read: second compound 0.316 µM, first compound 0.00949 µM.
The mark [13] stands for this setting: second compound 0.316 µM, first compound 0.03 µM.
[14] abbreviates: second compound 0.316 µM, first compound 0.0949 µM.
Setting [15] is: second compound 0.316 µM, first compound 0.3 µM.
Where [16] appears, read: second compound 0.316 µM, first compound 0.949 µM.
The mark [17] stands for this setting: second compound 0.316 µM, first compound 3 µM.
[18] abbreviates: second compound 1 µM, first compound 0.00949 µM.
Setting [19] is: second compound 1 µM, first compound 0.03 µM.
Where [20] appears, read: second compound 1 µM, first compound 0.0949 µM.
The mark [21] stands for this setting: second compound 1 µM, first compound 0.3 µM.
The mark [22] stands for this setting: second compound 1 µM, first compound 0.949 µM.
The mark [23] stands for this setting: second compound 1 µM, first compound 3 µM.
Setting [24] is: second compound 3.16 µM, first compound 0.00949 µM.
The mark [25] stands for this setting: second compound 3.16 µM, first compound 0.03 µM.
Where [26] appears, read: second compound 3.16 µM, first compound 0.0949 µM.
[27] abbreviates: second compound 3.16 µM, first compound 0.3 µM.
Where [28] appears, read: second compound 3.16 µM, first compound 0.949 µM.
Setting [29] is: second compound 3.16 µM, first compound 3 µM.
[30] abbreviates: second compound 10 µM, first compound 0.00949 µM.
Where [31] appears, read: second compound 10 µM, first compound 0.03 µM.
Setting [32] is: second compound 10 µM, first compound 0.0949 µM.
Where [33] appears, read: second compound 10 µM, first compound 0.3 µM.
Setting [34] is: second compound 10 µM, first compound 0.949 µM.
Setting [35] is: second compound 10 µM, first compound 3 µM.

Several values for one entry are separate records, joined by “and”; a condition that tells them apart may be missing. Identical values can stand only once.
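Throughout, for viability, T/C: spheroids mix tumor cells with HUVEC endothelium and human MSC stroma; luminescence taken as viability surrogate after a week of drug exposure.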

Turning to `O=C(C=Cn1cnc(-c2cc(C(F)(F)F)cc(C(F)(F)F)c2)n1)NNc1cnccn1` + CC(CO)NC(=O)c1cc(-c2ccc(Cl)cc2)nn(-c2cnn(C)c2)c1=O, the IC50 under setting [1] was determined as 81.6 nM; the IC50 under setting [2] turned out to be 29.4 nM; the half-inhibitory concentration (IC50) under setting [3] was found to be 23.3 nM; the IC50 under setting [4] came to 21.8 nM; the IC50 under setting [5] is 12.5 nM. The viability, T/C was 59.2% under setting [6]; 58.6% under setting [7]; 42.9% under setting [8]; 45.7% under setting [9]; 39.4% under setting [10]; 29.1% under setting [11]. The viability, T/C is, setting by setting: under setting [12], 85.6%; under setting [13], 44.6%; under setting [14], 43.8%; under setting [15], 38%; under setting [16], 37.7%; under setting [17], 23.9%. In addition, the viability, T/C runs as follows: under setting [18], 62.8%; under setting [19], 40.3%; under setting [20], 38.9%; under setting [21], 38.8%; under setting [22], 34.6%; under setting [23], 21.7%. The viability, T/C was 58.9% under setting [24]; 38.7% under setting [25]; 50.4% under setting [26]; 29.4% under setting [27]; 27.6% under setting [28]; 25.6% under setting [29]. Moreover, the viability, T/C reads like this: under setting [30], 52.7%; under setting [31], 42.1%; under setting [32], 27.5%; under setting [33], 26.7%; under setting [34], 22.4%; under setting [35], 17.7%.
For the compound `Cn1ncnc1C1c2n[nH]c(=O)c3cc(F)cc(c23)NC1c1ccc(F)cc1` (centres undefined) + CC(CO)NC(=O)c1cc(-c2ccc(Cl)cc2)nn(-c2cnn(C)c2)c1=O, the concentration for half-maximal inhibition (IC50) under setting [1] was greater than 100 nM; the concentration for half-maximal inhibition (IC50) under setting [2] is greater than 100 nM; the concentration for half-maximal inhibition (IC50) under setting [3] is greater than 100 nM; the IC50 under setting [4] was greater than 100 nM; the IC50 under setting [5] is greater than 100 nM. For the same compound, the viability, T/C reads like this: (second compound 0.1 µM, first compound 0.000316 µM) 99.2%; (second compound 0.1 µM, first compound 0.001 µM) 112%; (second compound 0.1 µM, first compound 0.00316 µM) 116%; (second compound 0.1 µM, first compound 0.01 µM) 108%; (second compound 0.1 µM, first compound 0.0316 µM) 105%; (second compound 0.1 µM, first compound 0.1 µM) 83%. The viability, T/C (second compound 0.316 µM, first compound 0.000316 µM) was 117%; the viability, T/C (second compound 0.316 µM, first compound 0.001 µM) is 107%; the viability, T/C (second compound 0.316 µM, first compound 0.00316 µM) is 120%; the viability, T/C (second compound 0.316 µM, first compound 0.01 µM) is 119%; the viability, T/C (second compound 0.316 µM, first compound 0.0316 µM) was 74.1%; the viability, T/C (second compound 0.316 µM, first compound 0.1 µM) is 103%. For the same compound, the viability, T/C is 103% (second compound 1 µM, first compound 0.000316 µM); 134% (second compound 1 µM, first compound 0.001 µM); 112% (second compound 1 µM, first compound 0.00316 µM); 114% (second compound 1 µM, first compound 0.01 µM); 106% (second compound 1 µM, first compound 0.0316 µM); 100% (second compound 1 µM, first compound 0.1 µM). Moreover, the viability, T/C (second compound 3.16 µM, first compound 0.000316 µM) was 118%; the viability, T/C (second compound 3.16 µM, first compound 0.001 µM) is 121%; the viability, T/C (second compound 3.16 µM, first compound 0.00316 µM) was 86.1%; the viability, T/C (second compound 3.16 µM, first compound 0.01 µM) was 89.3%; the viability, T/C (second compound 3.16 µM, first compound 0.0316 µM) was 86.1%; the viability, T/C (second compound 3.16 µM, first compound 0.1 µM) is 78.5%. Besides, the viability, T/C is, setting by setting: (second compound 10 µM, first compound 0.000316 µM) 104%; (second compound 10 µM, first compound 0.001 µM) 100%; (second compound 10 µM, first compound 0.00316 µM) 99.7%; (second compound 10 µM, first compound 0.01 µM) 82.6%; (second compound 10 µM, first compound 0.0316 µM) 60.1%; (second compound 10 µM, first compound 0.1 µM) 77.8%.
Consider `O=C(C=Cn1cnc(-c2cc(C(F)(F)F)cc(C(F)(F)F)c2)n1)NNc1cnccn1` + Cc1ccccc1N=Nc1ccc(NC(=O)c2ccnn2C)c(C)c1, for which the IC50 by setting is: under setting [1], 40.1 nM; under setting [2], less than 9.49 nM; under setting [3], 18.5 nM; under setting [4], less than 9.49 nM; under setting [5], 140 nM. Also, the viability, T/C by setting is: under setting [6], 59%; under setting [7], 50.4%; under setting [8], 41.2%; under setting [9], 39.5%; under setting [10], 40.2%; under setting [11], 21.5%. The viability, T/C is 54.8% under setting [12]; 43.1% under setting [13]; 39.3% under setting [14]; 46.1% under setting [15]; 40.8% under setting [16]; 24.6% under setting [17]. Besides, the viability, T/C reads like this: under setting [18], 55.8%; under setting [19], 42.6%; under setting [20], 45.1%; under setting [21], 36.2%; under setting [22], 38.4%; under setting [23], 31.8%. The viability, T/C was 53.8% under setting [24]; 51.4% under setting [25]; 47.6% under setting [26]; 40.8% under setting [27]; 50.2% under setting [28]; 29.8% under setting [29]. Moreover, the viability, T/C runs as follows: under setting [30], 91%; under setting [31], 66.2%; under setting [32], 47.6%; under setting [33], 53.4%; under setting [34], 38.2%; under setting [35], 32.9%.
Take `Nc1ncn(C2CC(O)C(CO)O2)c(=O)n1` (centres undefined): the viability, T/C was 92.7% and 87.2% and 101% (compound 0.00316 µM); 90.8% and 72.2% and 80.4% (compound 0.01 µM); 88.8% and 87.9% and 88.9% (compound 0.0316 µM); 73% and 52.6% and 68.5% (compound 0.1 µM); 65.5% and 53.7% and 63% (compound 0.316 µM); 48.3% and 38.4% and 39.5% (compound 1 µM). Further, for the setting “curve of compound”, the IC50 is 907 nM and 158 nM and 564 nM.
For `Cn1ncnc1C1c2n[nH]c(=O)c3cc(F)cc(c23)NC1c1ccc(F)cc1` (centres undefined), the viability, T/C is 106% and 64.7% and 90.7% (compound 0.000316 µM); 103% and 97.9% and 110% (compound 0.001 µM); 94.6% and 105% and 89.1% (compound 0.00316 µM); 94.8% and 75% and 89.5% (compound 0.01 µM); 85.7% and 73.9% and 97.8% (compound 0.0316 µM); 84.5% and 74% and 80.7% (compound 0.1 µM). Also, the concentration for half-maximal inhibition (IC50) (curve of compound) was greater than 100 nM.

(Values after PubChem BioAssay AID1918998 (Molecular Pharmacology Branch, DTP, NCI, 2023).)
